Measured values: ChEMBL document CHEMBL4699446, “Hydroxy-neo-Clerodanes and 5,10-seco-neo-Clerodanes from Salvia decora” (J Nat Prod, 2020)
Calls of active or inactive are those of the source. The rule behind the calls is not given here.

Columns and labels:
[1] = biological target: T1, Tyrosine-protein phosphatase non-receptor type 1 (Homo sapiens) (UniProt P18031); assay: Binding affinity to human PTP1B (1 to 405 residues) at 1:2 protein-ligand ratio
T1 sequence (whole entry): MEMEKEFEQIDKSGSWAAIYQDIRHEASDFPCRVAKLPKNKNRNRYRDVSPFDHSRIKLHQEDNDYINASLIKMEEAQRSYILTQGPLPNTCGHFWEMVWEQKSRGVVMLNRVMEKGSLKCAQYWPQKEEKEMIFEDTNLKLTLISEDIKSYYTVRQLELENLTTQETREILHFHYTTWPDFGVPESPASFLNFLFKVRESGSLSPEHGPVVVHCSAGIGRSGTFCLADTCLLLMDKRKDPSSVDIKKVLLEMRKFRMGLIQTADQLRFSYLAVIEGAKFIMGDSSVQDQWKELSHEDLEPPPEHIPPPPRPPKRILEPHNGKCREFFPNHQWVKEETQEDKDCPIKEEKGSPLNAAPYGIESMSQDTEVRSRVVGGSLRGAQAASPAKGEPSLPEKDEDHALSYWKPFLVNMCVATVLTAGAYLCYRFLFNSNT

[2] = Inhibition of Saccharomyces cerevisiae alpha-glucosidase using pNPG as substrate preincubated for 10 mins followed by substrate addition after 20 mins
[3] = biological target: T1, Tyrosine-protein phosphatase non-receptor type 1 (Homo sapiens)
Description: Binding affinity to wild type human HIS6-tagged PTP1B (1 to 400 residues) expressed in Escherichia coli Rosetta (DE3) pLysS by tryptophan-tyrosine residues based spectrometric method

[4] = biological target: T1, Tyrosine-protein phosphatase non-receptor type 1 (Homo sapiens); assay: Inhibition of wild type human HIS6-tagged PTP1B (1 to 400 residues) expressed in Escherichia coli Rosetta (DE3) pLysS cells using p-NPP substrate at 0.38 to 1 mM preincubated for 10 mins followed dby substrate addition and measured after 20 mins relative to control; settings: dose mM 0.38-1, time 30.0 min

| Structure (SMILES) | Ka [1] | IC50 [2] | Ka [3] | inhibition [4] |
| --- | --- | --- | --- | --- |
| CC(C)[C@@H](CC[C@@H](C)[C@H]1CC[C@H]2[C@@H]3[C@H](O)C[C@H]4C[C@@H](NCCCNCCCCNCCCN)CC[C@]4(C)[C@H]3CC[C@]12C)OS(=O)(=O)O | 3.3 10^5/M |  |  |  |
| C[C@H]1[C@H](C)CC[C@]2(C(=O)O)CC[C@]3(C)C(=CC[C@@H]4[C@@]5(C)CC[C@H](O)C(C)(C)[C@@H]5CC[C@]43C)[C@H]12 [URSOLIC ACID] |  | 7.5 µM | 1.3 10^4/M | 50% |
| CC(=O)O[C@H]1CC2=C(/C=C\C=C\[C@@]3(C)C[C@H](c4ccoc4)OC(=O)[C@@H]13)C(=O)OC2 |  |  |  | Active |
